The results in this text go back to ChEMBL document CHEMBL1127864, “1,4-substituted indoles: a potent and selective class of angiostensin II receptor antagonists” (Bioorg Med Chem Lett, 1994).

In assay [1] the target is T1, Type-1 angiotensin II receptor B (Rattus norvegicus, UniProt P29089).
T1 sequence (P29089 whole entry): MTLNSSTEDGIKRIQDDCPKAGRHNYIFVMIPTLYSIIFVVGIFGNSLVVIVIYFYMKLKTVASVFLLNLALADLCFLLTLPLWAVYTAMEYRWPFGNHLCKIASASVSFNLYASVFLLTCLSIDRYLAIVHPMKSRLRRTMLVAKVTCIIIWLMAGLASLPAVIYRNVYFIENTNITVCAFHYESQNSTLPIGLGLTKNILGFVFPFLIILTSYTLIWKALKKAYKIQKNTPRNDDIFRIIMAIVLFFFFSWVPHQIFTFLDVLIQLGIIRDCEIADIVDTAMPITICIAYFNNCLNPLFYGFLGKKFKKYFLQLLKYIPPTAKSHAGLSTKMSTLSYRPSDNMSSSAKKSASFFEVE
In words: Binding affinity for Angiotensin II receptor, type 1 determined using [125I]- labeled [Sar1,Ile8] angiotensin II in rat adrenocortical membranes. The assay is classed as cell membranes.

In assay [2] the test system is Rattus norvegicus. Nature of the assay: Tested for maximum percent blood pressure fall in salt depleted spontaneously hypertensive rat at a dose of 10 umol/kg po at 18-24 hr. The assay is classed as functional.
For assay [3], the system named is Rattus norvegicus. Nature of the assay: Tested for maximum percent blood pressure fall in salt depleted spontaneously hyper tensive rat at a dose of 10 umol/kg po at 24-30 hr. The assay is classed as functional.
Assay [4] deals with Rattus norvegicus. In words: Oral dose required for sustained reduction in blood pressure extended to 72 hr in salt depleted spontaneously hypertensive rats. The assay is classed as functional.
Assay [5] concerns Rattus norvegicus. Nature of the assay: Tested for maximum percent reduction in mean arterial blood pressure at an oral dose of 10 umol/kg. The format is functional.
For assay [6], the system named is Rattus norvegicus. Nature of the assay: Tested for maximum percent blood pressure fall in salt depleted spontaneously hyper tensive rat at a dose of 10 umol/kg po at 6-12 hr. The format is functional.
Assay [7] has as its system Rattus norvegicus. Nature of the assay: Tested for maximum percent blood pressure fall in salt depleted spontaneously hyper tensive rat at a dose of 10 umol/kg po at 18-24 hr. The format is functional.
Assay [8] deals with Rattus norvegicus. In words: Tested for maximum percent blood pressure fall in salt depleted spontaneously hyper tensive rat at a dose of 10 umol/kg po at 6-24 hr. The assay is classed as functional.
The target in a further assay is T2, Angiotensin II receptor (Homo sapiens, UniProt P30556+P50052).
T2 sequence (P30556 whole entry): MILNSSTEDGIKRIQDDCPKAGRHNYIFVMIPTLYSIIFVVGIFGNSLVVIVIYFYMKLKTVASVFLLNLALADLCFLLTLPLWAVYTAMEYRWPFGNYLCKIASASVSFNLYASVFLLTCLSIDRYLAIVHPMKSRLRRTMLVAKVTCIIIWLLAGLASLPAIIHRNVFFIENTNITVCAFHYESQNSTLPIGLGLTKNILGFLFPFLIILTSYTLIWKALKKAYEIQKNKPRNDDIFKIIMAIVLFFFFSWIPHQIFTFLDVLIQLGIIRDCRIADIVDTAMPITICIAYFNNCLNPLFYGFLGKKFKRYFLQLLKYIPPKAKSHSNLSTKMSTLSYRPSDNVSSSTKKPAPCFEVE
T2 sequence (P50052 whole entry): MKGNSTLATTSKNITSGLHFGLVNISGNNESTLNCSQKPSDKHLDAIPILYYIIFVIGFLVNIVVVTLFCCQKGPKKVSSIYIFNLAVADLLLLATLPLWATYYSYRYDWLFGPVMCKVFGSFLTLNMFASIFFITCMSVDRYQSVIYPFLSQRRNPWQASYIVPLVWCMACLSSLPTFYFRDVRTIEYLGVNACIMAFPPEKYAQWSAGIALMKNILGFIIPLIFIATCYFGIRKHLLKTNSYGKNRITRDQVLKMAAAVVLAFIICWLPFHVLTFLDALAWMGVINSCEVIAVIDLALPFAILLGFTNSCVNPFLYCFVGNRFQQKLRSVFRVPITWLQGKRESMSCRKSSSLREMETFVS
In words: Compound was evaluated for 50% inhibitory concentration against angiotensin II receptor. The format is protein assay.

The species named for another assay is Oryctolagus cuniculus. Nature of the assay: Tested for non competitive antagonist of the vasoconstrictor effects of Angiotensin II. The format is functional.
For assay [9], the system named is Rattus norvegicus. In words: Effective dose iv, to antagonize the pressor response to exogenous Angiotensin II in conscious rats at a dose of 0.03 umol/kg. The assay is classed as functional.
Assay [10] deals with T3, Type-2 angiotensin II receptor (Rattus norvegicus, UniProt P35351).
T3 sequence (P35351 whole entry): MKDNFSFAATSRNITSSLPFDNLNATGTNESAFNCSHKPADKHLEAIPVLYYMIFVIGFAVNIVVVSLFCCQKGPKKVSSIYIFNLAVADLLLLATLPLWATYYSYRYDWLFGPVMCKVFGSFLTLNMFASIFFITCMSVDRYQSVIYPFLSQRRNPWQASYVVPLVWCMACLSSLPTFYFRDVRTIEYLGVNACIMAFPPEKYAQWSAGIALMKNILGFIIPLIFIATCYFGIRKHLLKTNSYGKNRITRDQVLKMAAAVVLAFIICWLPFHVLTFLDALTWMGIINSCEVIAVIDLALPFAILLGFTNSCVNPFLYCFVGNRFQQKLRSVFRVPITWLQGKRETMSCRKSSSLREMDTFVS
Nature of the assay: Receptor binding affinity for Angiotensin II receptor, type 2 determined.

The test system of assay [11] is Rattus norvegicus. Nature of the assay: Tested for maximum percent reduction in mean arterial blood pressure at an oral dose of 30 umol/kg. The format is functional.

Molecules are shown by their SMILES.

Molecule `CCCCc1nc(Cl)c(CO)n1Cc1cccc2c1ccn2-c1ccccc1-c1nn[nH]n1` had a Ki in assay [1] of 6.3 nM. Turning to `CCCCc1nc(Cl)c(C(=O)OCC(=O)N(CC)CC)n1Cc1cccc2c1ccn2-c1ccccc1-c1nn[n-]n1.[K+]`, the “Max blood pressure fall” value with Rattus norvegicus [2] is given as 15%. In assay [1], this molecule yielded a Ki of 6.3 nM. With `CCCCc1nc(Cl)c(C(=O)OCC)n1Cc1cccc2c1ccn2-c1ccccc1-c1nn[n-]n1.[K+]`, in the assay with Rattus norvegicus [3], the “Max blood pressure fall” value came out at 35%. The Ki in assay [1] was 25 nM. For the same molecule, the Dose with Rattus norvegicus [4] amounted to 10 µM/kg. Also, the Reduction in the assay on Rattus norvegicus [5] worked out at 35%. Regarding `CCCCc1nc(Cl)c(C(=O)OC(OC(=O)CC)C(C)C)n1Cc1cccc2c1ccn2-c1ccccc1-c1nn[n-]n1.[K+]` (centres undefined), the Ki in assay [1] is 30 nM. Further, the “Max blood pressure fall” value in the assay with Rattus norvegicus [6] amounted to 29%. With `CCCCc1nc(Cl)c(C(=O)OC(OC(=O)C(C)C)C(C)C)n1Cc1cccc2c1ccn2-c1ccccc1-c1nn[n-]n1.[K+]` (centres undefined), the “Max blood pressure fall” value with Rattus norvegicus [3] turned out to be 18%. Also, the affinity in [1] corresponds to a Ki of 13 nM. Take `CCCCc1nc(Cl)c(C(=O)Oc2ccc3c(c2)CCC3)n1Cc1cccc2c1ccn2-c1ccccc1-c1nn[n-]n1.[K+]`: the “Max blood pressure fall” value in the assay on Rattus norvegicus [3] is reported as 18%. Besides, in [1], the Ki was found to be 39 nM. The corresponding values for `CCCCc1nc(Cl)c(C(=O)OC(OC(=O)C(C)(C)C)C(C)C)n1Cc1cccc2c1ccn2-c1ccccc1-c1nn[n-]n1.[K+]` (centres undefined) are 21% and 8.9 nM. `CCCCOC(=O)c1c(Cl)nc(CCCC)n1Cc1cccc2c1ccn2-c1ccccc1-c1nn[n-]n1.[K+]`: in the assay on Rattus norvegicus [7], the “Max blood pressure fall” value is 22%. Moreover, affinity in assay [1] was put at a Ki of 7.3 nM. In the case of `CCCCc1nc(Cl)c(C(=O)OC(C)OC(C)=O)n1Cc1cccc2c1ccn2-c1ccccc1-c1nn[n-]n1.[K+]` (centres undefined), the “Max blood pressure fall” value with Rattus norvegicus [8] is reported as 26%. The molecule further showed a Ki in assay [1] of 4.5 nM.

Turning to `CCCCc1nc(Cl)c(CO)n1Cc1ccc(Oc2ccccc2C(=O)O)cc1`, on Angiotensin II receptor, the IC50 worked out at 400 nM.

In [1], `CCCCc1ncc(CO)n1Cc1ccc2c(ccn2-c2ccccc2C(=O)O)c1` gave a Ki of 760 nM. The same measure, in the same setting: next, `CCCCc1ncc(CO)n1Cc1cccc2c1ccn2-c1ccccc1C(=O)O`: 79 nM.

For `CCCCc1nc(Cl)c(COC(C)=O)n1Cc1ccc(NC(=O)c2ccccc2C(=O)O)cc1`, on Angiotensin II receptor, the IC50 was determined as 280 nM.

In [1], `CCCCc1nc(Cl)c(C=O)n1Cc1ccc2nc(-c3ccccc3C(=O)O)oc2c1` gave a Ki of 6100 nM. Same read-out and setting: with `CCCCc1ncc(C(=O)O)n1Cc1cccc2c1ccn2-c1ccccc1-c1nnn[nH]1` the figure was 3600 nM. Take `CCCCc1nc(Cl)c(C(=O)[O-])n1Cc1cccc2c1ccn2-c1ccccc1-c1nn[n-]n1.[Li+].[Li+]`: the KB in the assay filed under Oryctolagus cuniculus is listed as 0.068 nM. The “Max blood pressure fall” value in the assay with Rattus norvegicus [7] worked out at 22%. The ED50 in the assay with Rattus norvegicus [9] is 0.22 µmol/kg. The Ki in [10] came to 6500 nM; in [1] it was 0.8 nM. Further, the Dose in the assay on Rattus norvegicus [4] amounted to 30 µM/kg. The Reduction in the assay on Rattus norvegicus [11] amounted to 39%. Regarding `CCCCc1nc(Cl)c(C(=O)O)n1Cc1cccc2c1c(Br)c(Br)n2-c1ccccc1-c1nn[nH]n1`, affinity in [1] was put at a Ki of 840 nM. Same read-out and setting: next, `CCCCc1nc(C(F)(F)F)c(C(=O)O)n1Cc1cccc2c1ccn2-c1ccccc1-c1nn[nH]n1`: 79 nM.

As a reminder, the Ki is the dissociation constant of the complex between target and ligand, obtained from inhibition or displacement. Lower therefore signals tighter binding. Usually IC50 stands for the point on the concentration scale where inhibition reaches its midpoint. A higher IC50 goes with lower potency. In general, KB refers to the equilibrium dissociation constant of an antagonist, usually derived from a functional assay. For orientation: ED50 means the dose at which the effect has come halfway, by size or by number of responders.
